Consider 16 compounds from ChEMBL document CHEMBL1799982, “Synthesis, protein kinase inhibitory potencies, and in vitro antiproliferative activities of meridianin derivatives” (J Med Chem, 2011).

Test [1] deals with Glycogen synthase kinase-3 (Sus scrofa, UniProt B2LUN4+I6LNT8). Kind of test: Inhibition of pig brain GSK-3alpha/beta using YRRAAVPPSPSLSRHSSPHQSpEDEEE as substrate.
Test [2] can be described thus: Inhibition of pig brain CK1 delta/epsilon using RRKHAAIGpSAYSITA as substrate. Further details: species or system Sus scrofa.
Test [3] addresses Dual specificity protein kinase CLK1 (Homo sapiens, UniProt P49759).
The target in test [4] is Cyclin-dependent kinase 5/CDK5 activator 1 (Homo sapiens, UniProt Q00535). Kind of test: Inhibition of human recombinant CDK5/p25 using Histone H1 and [gamma32]-ATP after 30 mins by scintillation counting. It is filed as protein-complex assay.
The subject of another test is IMR-32. Kind of test: Antiproliferative activity against human IMR32 cells by MTS reduction assay.
Test [5] concerns the target Dual specificity tyrosine-phosphorylation-regulated kinase 1A (Rattus norvegicus, UniProt Q63470). In words: Inhibition of rat recombinant GST-tagged DYRK1A using myelin protein as substrate and [gamma32]-ATP after 30 mins by scintillation counting.
Another test relates to MCF7. Kind of test: Antiproliferative activity against human MCF7 cells after 48 hrs by resazurin reduction test. The settings on record: MCF7, 48 h. Background: The colour change of resazurin is a common sign of viable cells or microbes.
Another test deals with PA-1. In words: Antiproliferative activity against human PA1 cells after 48 hrs by resazurin reduction test. It is filed as functional, cell-based. Conditions: PA-1, 48 h.
Another test has as its system HT-22. Kind of test: Antiproliferative activity against mouse HT22 cells by MTS reduction assay. Background: Formazan colour is commonly taken as a measure of viable cells.
For another test, the system named is PC-3. In words: Antiproliferative activity against human PC3 cells after 48 hrs by resazurin reduction test. The settings on record: PC-3, 48 h.
A further test has as its system SH-SY5Y. In words: Antiproliferative activity against human SH-SY5Y cells by MTS reduction assay.

Chain of Dual specificity protein kinase CLK1 (P49759 whole entry): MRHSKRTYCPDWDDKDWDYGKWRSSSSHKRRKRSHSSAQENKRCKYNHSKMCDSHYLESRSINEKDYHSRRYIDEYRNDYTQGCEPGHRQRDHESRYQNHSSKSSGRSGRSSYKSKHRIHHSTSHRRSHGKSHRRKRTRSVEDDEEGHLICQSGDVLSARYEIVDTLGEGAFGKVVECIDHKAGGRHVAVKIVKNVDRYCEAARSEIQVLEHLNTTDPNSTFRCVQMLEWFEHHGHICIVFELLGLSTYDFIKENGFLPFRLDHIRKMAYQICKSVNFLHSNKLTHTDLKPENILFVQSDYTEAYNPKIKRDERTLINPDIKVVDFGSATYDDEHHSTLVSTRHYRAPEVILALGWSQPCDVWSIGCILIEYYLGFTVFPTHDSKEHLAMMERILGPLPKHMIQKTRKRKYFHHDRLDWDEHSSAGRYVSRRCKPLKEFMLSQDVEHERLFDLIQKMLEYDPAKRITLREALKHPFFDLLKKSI
Chain of Cyclin-dependent kinase 5/CDK5 activator 1 (Q00535 whole entry): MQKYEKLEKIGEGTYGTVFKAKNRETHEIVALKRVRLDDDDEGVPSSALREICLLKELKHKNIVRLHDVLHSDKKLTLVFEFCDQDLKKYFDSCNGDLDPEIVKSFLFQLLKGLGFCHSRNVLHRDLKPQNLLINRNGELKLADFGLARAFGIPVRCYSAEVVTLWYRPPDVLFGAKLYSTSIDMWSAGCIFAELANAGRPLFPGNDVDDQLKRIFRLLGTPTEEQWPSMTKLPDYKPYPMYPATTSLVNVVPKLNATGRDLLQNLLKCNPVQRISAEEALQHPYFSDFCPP
Chain of Cyclin-dependent kinase 5/CDK5 activator 1 (Q15078 whole entry, further chain): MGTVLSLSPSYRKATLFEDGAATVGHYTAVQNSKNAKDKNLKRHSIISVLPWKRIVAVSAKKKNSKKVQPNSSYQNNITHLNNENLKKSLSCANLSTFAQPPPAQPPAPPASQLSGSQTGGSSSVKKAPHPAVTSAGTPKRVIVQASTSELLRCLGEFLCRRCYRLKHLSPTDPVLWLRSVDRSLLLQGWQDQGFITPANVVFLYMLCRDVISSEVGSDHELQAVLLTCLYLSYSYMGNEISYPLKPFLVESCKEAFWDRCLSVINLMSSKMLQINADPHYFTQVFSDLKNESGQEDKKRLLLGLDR

For orientation: IC50 means the point on the concentration scale where inhibition reaches its midpoint. As for `CC(=O)Nc1ccc(-c2cnc(N)nc2-c2c[nH]c3ccc(Br)cc23)cc1`, the IC50 was 0.4 µM in test [1]; 2.1 µM in test [2]; 0.75 µM in [3]; 6.8 µM in test [4]; over 10 µM in the test on IMR-32; 4.15 µM in test [5]. In addition, the IC50 in the test with MCF7, in the test with PA-1, in the test on HT-22, with PC-3 and in the test with SH-SY5Y was over 10 µM in each case.

Consider `Nc1ncc(-c2ccc(C(F)(F)F)cc2)c(-c2c[nH]c3cccc(Br)c23)n1`, for which the IC50 is 1 µM in test [1]; over 10 µM in test [2]; 1.3 µM in [3]; 4.7 µM in test [4]; over 10 µM in the test with IMR-32; 1.85 µM in test [5]. The IC50 in the test on MCF7, in the test on PA-1, in the test on HT-22, in the test with PC-3 and in the test on SH-SY5Y was over 10 µM throughout.

For the compound `Nc1ncc(-c2ccc(C(F)(F)F)cc2)c(-c2c[nH]c3ccc(Br)cc23)n1`, the IC50 in [1] was 2 µM; in test [2], over 10 µM; in test [3], over 10 µM; in [4], over 10 µM; with IMR-32, over 10 µM; in test [5], over 10 µM. In addition, the IC50 in the test on MCF7, in the test on PA-1, in the test with HT-22, in the test with PC-3 and with SH-SY5Y was over 10 µM throughout.

On to `Nc1ncc(-c2ccc(C(F)(F)F)cc2)c(-c2c[nH]c3cc(Br)ccc23)n1`, for which the 50% inhibitory concentration (IC50) in test [1] was 6.1 µM; in test [2], over 10 µM; in test [3], over 10 µM; in test [4], over 10 µM; in the test on IMR-32, over 10 µM; in test [5], over 10 µM. The IC50 with MCF7, in the test with PA-1, in the test on HT-22, with PC-3 and in the test with SH-SY5Y was over 10 µM throughout.

Take `COc1cccc(-c2cnc(N)nc2-c2c[nH]c3cccc(Br)c23)c1`: the IC50 in test [1] is 1.4 µM; in [2] it was over 10 µM; in test [3], 1.3 µM; in test [4], 6 µM; with IMR-32, over 10 µM; in test [5], 0.81 µM. For the same compound, the IC50 with MCF7, in the test on PA-1, in the test on HT-22, with PC-3 and in the test on SH-SY5Y was over 10 µM throughout.

As to `COc1cccc(-c2cnc(N)nc2-c2c[nH]c3ccc(Br)cc23)c1`, the IC50 in test [1] turned out to be 1.2 µM; in [2] it was 2.2 µM; in test [3], 2.5 µM; in [4], 7.6 µM; with IMR-32, 20 µM; in test [5] it was 5.65 µM. Further, the IC50 was over 25 µM in the test on MCF7; over 10 µM with PA-1; 18 µM with HT-22; over 10 µM in the test with PC-3; over 25 µM in the test with SH-SY5Y.

For `COc1cccc(-c2cnc(N)nc2-c2c[nH]c3cc(Br)ccc23)c1`, the IC50 in [1] was 4.5 µM; in test [2], 3.2 µM; in [3] it was 2.3 µM; in [4] it was over 10 µM; in the test on IMR-32, 18 µM; in [5], 8.2 µM. Moreover, the IC50 in the test with MCF7 was over 25 µM; in the test on PA-1, over 10 µM; in the test with HT-22, 16 µM; with PC-3, over 10 µM; in the test on SH-SY5Y, over 25 µM.

For `Nc1nccc(-c2c[nH]c3cc([N+](=O)[O-])ccc23)n1`, the IC50 in [1] is over 10 µM; in test [2], 6.3 µM; in test [3], 0.38 µM; in [4], over 10 µM; in the test on IMR-32, over 25 µM; in test [5], 1.1 µM. In addition, the IC50 in the test with MCF7, in the test with HT-22 and with SH-SY5Y was over 25 µM in each case.

Regarding `Nc1nccc(-c2c[nH]c3c([N+](=O)[O-])cccc23)n1`, the IC50 in [1] is over 10 µM; in [2] it was 10 µM; in test [3], 0.07 µM; in test [4] it was 6.3 µM; in the test with IMR-32, over 25 µM; in [5] it was 0.085 µM. Further, the IC50 with MCF7, in the test on HT-22 and with SH-SY5Y was over 25 µM each time.

Turning to `Nc1nccc(-c2c[nH]c3cccc(Br)c23)n1`, the IC50 in test [1] was over 10 µM; in [2], 5.3 µM; in [3], 1.4 µM; in test [4], 10 µM; with IMR-32 it was over 25 µM; in test [5], 0.85 µM. The IC50 with MCF7, in the test on HT-22 and with SH-SY5Y was over 25 µM in each case.

With `Nc1nccc(-c2c[nH]c3c(Br)cccc23)n1`, the IC50 in [1] was over 10 µM; in test [2], 4.2 µM; in [3], 0.065 µM; in test [4], 3.1 µM; with IMR-32, 25 µM; in [5], 0.068 µM. For the same compound, the IC50 in the test with MCF7, in the test on HT-22 and in the test with SH-SY5Y was over 25 µM throughout.

Turning to `CC(=O)c1ccc(-c2cnc(N)nc2-c2c[nH]c3cccc(Br)c23)cc1`, the IC50 was over 10 µM in [2]; 7 µM in test [4]; over 10 µM in the test with IMR-32; 2.1 µM in test [5]; over 10 µM in the test on MCF7; over 10 µM with PA-1. Besides, the IC50 with HT-22, in the test on PC-3 and in the test with SH-SY5Y was over 10 µM throughout.

With `CC(=O)Nc1ccc(-c2cnc(N)nc2-c2c[nH]c3cccc(Br)c23)cc1`, the IC50 (in [1]; in test [2]; in test [3]; in test [4]; in the test on IMR-32; in test [5]) was over 10 µM in each case. Further, the IC50 in the test on MCF7, in the test on PA-1, with HT-22, in the test on PC-3 and in the test on SH-SY5Y was over 10 µM throughout.

On to `Nc1nccc(-c2c[nH]c3ccccc23)n1`, for which the IC50 was over 10 µM in [1]; 6.2 µM in test [2]; 0.53 µM in test [3]; 5 µM in test [4]; over 25 µM with IMR-32; 0.7 µM in [5]. Further, the IC50 in the test with MCF7, in the test with HT-22 and with SH-SY5Y was over 25 µM each time.

Regarding `Nc1nccc(-c2c[nH]c3ccc(Br)cc23)n1` [MERIDIANIN C], the IC50 in test [1] was 1.3 µM; in test [2], 7.3 µM; in test [3] it was 0.22 µM; in [4], 1.2 µM; with IMR-32, over 25 µM; in test [5] it was 0.33 µM. In addition, the 50% inhibitory concentration (IC50) was 24 µM in the test with MCF7, 9.3 µM in the test with HT-22 and over 25 µM with SH-SY5Y.

Regarding `Nc1nccc(-c2c[nH]c3cc(Br)ccc23)n1` [MERIDIANIN D], the IC50 is 7.2 µM in test [1]; 3.8 µM in test [2]; 0.12 µM in test [3]; 1.2 µM in test [4]; over 25 µM in the test with IMR-32; 0.13 µM in test [5]. Also, the IC50 with MCF7, in the test with HT-22 and in the test with SH-SY5Y was over 25 µM each time.
